Test results published in paper PMC5826112, “Intrapulmonary Pharmacokinetics of Relebactam, a Novel β-Lactamase Inhibitor, Dosed in Combination with Imipenem-Cilastatin in Healthy Subjects” (Antimicrobial Agents and Chemotherapy, 2018).
“Also recorded” adds a separate entry of the source. Where two headings read alike, the source gives them in different places.

Experiments:
[1] = parameters: method as in PMID 21300830; conditions: patients with ventilator-associated pneumonia; cited from earlier work
[2] = parameters: method as in PMID 26349830; conditions: healthy adults, meropenem-RPX7009; cited from earlier work
[3] = healthy adults, ceftolozane-tazobactam; cited from earlier work
[4] = Intrapulmonary (ELF, AC) and plasma pharmacokinetics after multiple-dose IV relebactam with imipenem-cilastatin, bronchoscopy/BAL, noncompartmental analysis; type: in vivo, human (healthy subjects); conditions: for t1/2 (terminal half-life) / half-life / AUC(0-inf) / Cmax / Tmax / AUC(0-t): mean profile; for half-life: read-out: t1/2 (terminal half-life) (converted); for AUC(0-inf): noncompartmental analysis; for AUC(0-t): read-out: AUC0–3; for concentrations in AC (alveolar cells): result in words
Experimental: Dosing and administration of imipenem-cilastatin were carried out in a manner consistent with the recommended labeled posology. BAL fluid specimens were obtained during bronchoscopy for the determination of the relebactam and imipenem concentrations in the ELF and AC. Four aliquots of normal saline (50 ml each) were sequentially instilled and aspirated after each instillation. The first aspirate was discarded, and the remaining aspirates were pooled and used to obtain urea and drug level measurements. Aliquots were obtained for cell count/differential, and the remainder of the pooled aspirates was centrifuged. The liquid aspirate and cell pellet were separated and stored at −70°C. The supernatant was sent for urea and drug level measurements. Blood samples were collected prior to the first and fifth doses of study drug for the determination of relebactam and imipenem plasma concentrations. Blood samples were also collected during the bronchoscopy/BAL procedure for the determination of relebactam, imipenem, and urea concentrations. Relebactam and imipenem levels in plasma, pulmonary ELF, and AC were measured simultaneously via acetonitrile protein precipitation and hydrophilic interaction liquid chromatography (HILIC) with detection via liquid chromatography-tandem mass spectrometry (LC-MS/MS). The system consisted of a Waters Acquity ultraperformance liquid chromatograph (Waters Corp., Milford, MA) and an API 4000 or 5000 triple-quadrupole tandem mass spectrometer (Sciex, Framingham, MA) equipped with a turbo-ion spray interface and operated in the positive ionization mode. The multiple reaction monitoring (MRM) transitions monitored were m/z 349 → 269 for relebactam, m/z 300 → 98 for imipenem, and m/z 354 → 274 and m/z 307 → 98 for their respective internal standards. […] The ELF volumes recovered by BAL were determined by using urea as an endogenous marker to provide a dilution ratio by measurement of urea concentrations in the BAL fluid and serum ([33]). […] The mean value for each time point was used to conduct the noncompartmental analysis using Phoenix (version 6.3) software (Pharsight Corporation, Mountain View, CA) and to calculate the values of the PK parameters on the basis of the mean profile in each matrix.

[5] = no reference given; cited from earlier work
[6] = parameters: method as in PMID 7831630; conditions: orally administered amoxicillin-clavulanate; cited from earlier work
[7] = parameters: method as in PMID 17039351; conditions: multiple-dose, adult patients with ventilator-associated pneumonia; cited from earlier work
[8] = critically ill patients, multiple doses of piperacillin-tazobactam; cited from earlier work
[9] = both sexes, human, intravenous, ELF, same regimen
[10] = both sexes, human, intravenous, plasma, same regimen

SMILES: C[C@@H](O)[C@H]1C(=O)N2C(C(=O)O)=C(S[C@@H]3CN[C@H](C(=O)N(C)C)C3)[C@H](C)[C@H]12 [meropenem]
- ELF/plasma concentration ratio estimated by population modeling [1]: 30%
- mean penetration ratio based on AUC [2]: 63%

SMILES: Cn1c(N)c(NC(=O)NCCN)c[n+]1CC1=C(C(=O)O)N2C(=O)[C@@H](NC(=O)/C(=N\OC(C)(C)C(=O)[O-])c3nsc(N)n3)[C@H]2SC1 [ceftolozane]
- ELF/plasma AUC ratio [3]: 48%

SMILES: C[C@@H](O)[C@H]1C(=O)N2C(C(=O)O)=C(SCCN=CN)C[C@H]12 [imipenem]
- t1/2 (terminal half-life) ([4]; ELF, same regimen): 61.8 min
- half-life ([4]; both sexes, human, ELF, intravenous, ELF, same regimen): 60 min
- concentration at 0.5 h ([4]; both sexes, human, ELF, intravenous, same regimen, 0.5 h after last dose, n=4, read-out: concn in ELF, GM): 32.1 µM
- concentration at 1 h ([4]; both sexes, human, ELF, intravenous, same regimen, 1 h after last dose, n=4, read-out: concn in ELF, GM): 20.3 µM
- concentration at 1.5 h ([4]; both sexes, human, ELF, intravenous, same regimen, 1.5 h after last dose, n=4, read-out: concn in ELF, GM): 16.5 µM
- concentration at 3 h ([4]; both sexes, human, ELF, intravenous, same regimen, 3 h after last dose, n=4, read-out: concn in ELF, GM): 5.99 µM
- Kp ([4]; both sexes, human, ELF/plasma, intravenous, calculated as 100 · ELF AUC0–∞/plasma AUC0–∞/0.8, adjusted for protein binding (80% unbound in plasma, 100% free in ELF), read-out: Adjusted ELF/plasma AUC0–∞ ratio): 0.55
- Kp ([4]; both sexes, human, ELF/plasma, intravenous, calculated as 100 · ELF AUC0–∞/plasma AUC0–∞, mean profiles, read-out: ELF/plasma AUC0–∞ ratio): 0.442
- Kp ([4]; both sexes, human, ELF/plasma, intravenous, same regimen, 0.5 to 3 h after last dose, read-out: GMRs for ELF/plasma concentrations, range across time points): 0.32 to 0.55
- Kp at 1 h ([4]; both sexes, human, ELF/plasma, intravenous, same regimen, 1.0 h after last dose, n=4, read-out: ELF/plasma concn GMR (90% CI)): 0.36
- Kp at 1.5 h ([4]; both sexes, human, ELF/plasma, intravenous, same regimen, 1.5 h after last dose, n=4, read-out: ELF/plasma concn GMR (90% CI)): 0.55
- Kp at 3 h ([4]; both sexes, human, ELF/plasma, intravenous, same regimen, 3.0 h after last dose, n=4, read-out: ELF/plasma concn GMR (90% CI)): 0.5
- Kp at 0.5 h ([4]; both sexes, human, ELF/plasma, iv, healthy subjects, relebactam 250 mg with imipenem-cilastatin 500 mg IV every 6 h, 5 doses, 0.5 h after last dose, n=4, read-out: ELF/plasma concn GMR (90% CI)): 0.32
- AUC(0-inf) [4, 9]: 57.4 µM·h
- Cmax [4, 9]: 32.6 µM
- Tmax [4, 9]: 30 min
- AUC(0-t) [4, 9]: 48.4 µM·h
- AUC(0-inf) [4, 10]: 130 µM·h
- Cmax [4, 10]: 99.6 µM
- Tmax [4, 10]: 30 min
- AUC(0-t) [4, 10]: 114 µM·h
- half-life ([4]; both sexes, human, plasma, intravenous, plasma, same regimen): 60 min
- Adjusted ELF/plasma AUC0–∞ ratio ([4]; calculated as 100 · ELF AUC0–∞/plasma AUC0–∞/0.8, adjusted for protein binding (80% unbound in plasma, 100% free in ELF)): 55.2%
- t1/2 (terminal half-life) ([4]; plasma, same regimen): 57 min
- concentrations in AC (alveolar cells) ([4]; same regimen): below the limit of quantitation
- concentrations in AC (alveolar cells) ([4]; same regimen, listed as Imipenem): undetectable in the majority of patients; also recorded: not detected
- unbound in plasma (free fraction) [5]: 80%

SMILES: CC1(C)S[C@@H]2[C@H](NC(=O)[C@H](N)c3ccc(O)cc3)C(=O)N2[C@H]1C(=O)O [amoxicillin]
- concentrations in ELF relative to those in plasma [6]: less than 20%

SMILES: O=C(O)[C@H]1/C(=C/CO)O[C@@H]2CC(=O)N21 [clavulanate]
- concentrations in ELF relative to those in plasma [6]: less than 20%

SMILES: C[C@@H](O)[C@H]1C(=O)N2C(C(=O)O)=C(S[C@@H]3CN[C@H](C(=O)Nc4cccc(C(=O)O)c4)C3)[C@H](C)[C@H]12 [ertapenem]
- ratios of ELF concentrations to total plasma concentrations, median [7]: 0.32

SMILES: O=C(O)C[C@@H]1CC[C@H](NC(=O)Cc2cccs2)B(O)O1 [RPX7009]
- mean penetration ratio based on AUC [2]: 53%

SMILES: C[C@]1(Cn2ccnn2)[C@H](C(=O)O)N2C(=O)C[C@H]2S1(=O)=O [tazobactam]
- ELF/plasma AUC ratio [3]: 44%
- mean concentrations in ELF relative to total concentrations in plasma [8]: ~91%
